The record followed here is paper PMC3091528 (Glycobiology, 2011).

The structures appear in SMILES notation.

One may read the Ki as the equilibrium dissociation constant of an inhibitor or competing ligand from its target. Low values mean higher affinity, high ones lower affinity.

One test deals with T1, mouse LSECtin CRD (Mus musculus, UniProt Q8BNX1).
T1 sequence (Q8BNX1 161-294): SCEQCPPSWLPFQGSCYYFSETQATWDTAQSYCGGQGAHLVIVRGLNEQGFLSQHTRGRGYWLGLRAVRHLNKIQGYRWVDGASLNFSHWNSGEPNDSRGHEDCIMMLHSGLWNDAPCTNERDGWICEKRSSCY
The format is binding.

Another test has as its target T2, human LSECtin CRD (Homo sapiens, UniProt Q6UXB4).
T2 sequence (Q6UXB4 165-293 limits assumed): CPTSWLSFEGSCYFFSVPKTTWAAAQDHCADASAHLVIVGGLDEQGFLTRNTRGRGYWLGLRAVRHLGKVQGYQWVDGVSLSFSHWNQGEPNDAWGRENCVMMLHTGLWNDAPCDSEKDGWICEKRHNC
The test is classed as binding.

For the molecule `CC(=O)N[C@H]1[C@H](O[C@@H]2C(O)O[C@H](CO)[C@@H](O)[C@@H]2O)O[C@H](CO)[C@@H](O)[C@@H]1O` (some centres unmarked) [GlcNAcβ1-2Man], the results for the Ki on mouse LSECtin CRD and at human LSECtin CRD were 10.2 ± 0.8 µM and 1.1 ± 0.5 µM, respectively.
